Measurements reported in patent publication US20110214196A1, “DEVELOPMENT OF HERBICIDE-RESISTANT GRASS SPECIES” (University of Georgia Research Foundation, priority 2008, published 2011).

Assays:
Experiment in all cases: Whole plant greenhouse dose-response, Segment herbicide (Example 8)
Type in all cases: in vivo, seashore paspalum (Paspalum vaginatum)
[1] = test system: Mauna Kea line regenerated from tissue culture (TC)
Experimental: (§1) Sethoxydim-resistant plants regenerated from a sethoxydim-resistant cell line, Line A, were tested for resistance at the whole plant level in a dose-response experiment conducted in a greenhouse. In this experiment, Line A was compared to two herbicide-susceptible controls; the original parent line, Mauna Kea (PT); and a Mauna Kea line regenerated from tissue culture (TTC). Plants were transplanted to Cone-tainers™ measuring 4×14 cm and tapering to 1 cm (Stuewe and Sons Inc., Corvallis, Oreg.) containing a 1:1 mix of Fafard® 3B mix and sand and placed on benches under sodium lights in a greenhouse with a 16 hour photoperiod maintained at 27/32° C. day/night for two weeks prior to treatment applications. Each of the three genotypes, Line A, PT and TC were treated with 0, 50, 100, 200, 400, 800, 1600, and 3200 g ai ha^−1 rates of sethoxydim using Segment™ herbicide (BASF Corp., Florham Park, N.J.). All herbicide rates were applied at a spray volume of 1871 ha^−1 in an experimental spray chamber, and after drying, returned to the greenhouse bench and maintained under the conditions described above. Visual estimates of crop injury were recorded at 7, 14, 21, and 28 days after treatment (DAT) using a scale of 0 to 100, where 0 equals no injury and 100 equals complete death. At 42 days after treatment, the above ground portion of all plants was harvested, dried for 48 hours at a temperature of 50° C., and weighed to determine plant dry weight. Treatments were arranged in a randomized complete block design. Only two replications of TCC were possible due to limited plant materials; otherwise four replications were used for the other two genotypes (PT and Line A). Data were first analyzed using a two-way analysis of variance and subsequently analyzed within herbicide rate. Differences among genotype means at each herbicide rate were determined using Fisher's Least Significant Difference (LSD).

[2] = test system: original parent line, Mauna Kea (PT)
Experimental: as §1

[3] = test system: sethoxydim-resistant Line A
Experimental: as §1

[4] = at rates equal to or greater than 800 g ai ha^−1
[5] = at rates of 200 g ai ha^−1, scale of 0 to 100

CCC/C(=N\OCC)C1=C(O)CC(CC(C)SCC)CC1=O (centres unmarked) [sethoxydim, 2-[1-(ethoxyimino)-butyl]-5-[2-(ethylthio)propyl]-3-hydroxy-2-cylohexen-1-one]
LD50 [1]: 276 g ai ha^1 | Plant Injury ([1]; 50 g a.i. ha^−1, 7 DAT): 4.5a % | Plant Injury ([1]; 50 g a.i. ha^−1, 14 DAT): 12.5ab % | Plant Injury ([1]; 50 g a.i. ha^−1, 21 DAT): 2.5a % | Plant Injury ([1]; 50 g a.i. ha^−1, 28 DAT): 0.0a % | Dry Weight ([1]; 50 g a.i. ha^−1, 42 DAT): 2.2a grams | Plant Injury ([1]; 100 g a.i. ha^−1, 7 DAT): 18.3b % | Plant Injury ([1]; 100 g a.i. ha^−1, 14 DAT): 25.0b % | Plant Injury ([1]; 100 g a.i. ha^−1, 21 DAT): 20.0a % | Plant Injury ([1]; 100 g a.i. ha^−1, 28 DAT): 7.5a % | Dry Weight ([1]; 100 g a.i. ha^−1, 42 DAT): 1.6ab grams | Plant Injury ([1]; 200 g a.i. ha^−1, 7 DAT): 16.7b % | Plant Injury ([1]; 200 g a.i. ha^−1, 14 DAT): 30.0b % | Plant Injury ([1]; 200 g a.i. ha^−1, 21 DAT): 40.0b % | Plant Injury ([1]; 200 g a.i. ha^−1, 28 DAT): 32.5b % | Dry Weight ([1]; 200 g a.i. ha^−1, 42 DAT): 0.4b grams | Plant Injury ([1]; 400 g a.i. ha^−1, 7 DAT): 30.8b % | Plant Injury ([1]; 400 g a.i. ha^−1, 14 DAT): 82.5b % | Plant Injury ([1]; 400 g a.i. ha^−1, 21 DAT): 80.0b % | Plant Injury ([1]; 400 g a.i. ha^−1, 28 DAT): 82.5b % | Dry Weight ([1]; 400 g a.i. ha^−1, 42 DAT): 0.1b grams | Plant Injury ([1]; 800 g a.i. ha^−1, 7 DAT): 60.0c % | Plant Injury ([1]; 800 g a.i. ha^−1, 14 DAT): 87.5b % | Plant Injury ([1]; 800 g a.i. ha^−1, 21 DAT): 95.0b % | Plant Injury ([1]; 800 g a.i. ha^−1, 28 DAT): 100.0c % | Dry Weight ([1]; 800 g a.i. ha^−1, 42 DAT): 0.1b grams | Plant Injury ([1]; 1600 g a.i. ha^−1, 7 DAT): 43.3b % | Plant Injury ([1]; 1600 g a.i. ha^−1, 14 DAT): 100.0c % | Plant Injury ([1]; 1600 g a.i. ha^−1, 21 DAT): 100.0c % | Plant Injury ([1]; 1600 g a.i. ha^−1, 28 DAT): 100.0b % | Dry Weight ([1]; 1600 g a.i. ha^−1, 42 DAT): 0.1b grams | Plant Injury ([1]; 3200 g a.i. ha^−1, 7 DAT): 46.7b % | Plant Injury ([1]; 3200 g a.i. ha^−1, 14 DAT): 100.0b % | Plant Injury ([1]; 3200 g a.i. ha^−1, 21 DAT): 100.0b % | Plant Injury ([1]; 3200 g a.i. ha^−1, 28 DAT): 100.0b % | Dry Weight ([1]; 3200 g a.i. ha^−1, 42 DAT): 0.1b grams | injury score [1, 4]: ≥ 80% | injury score [1, 5]: ≥ 30 | LD50 [2]: 189 g ai ha^1 | Plant Injury ([2]; 50 g a.i. ha^−1, 7 DAT): 5.2a % | Plant Injury ([2]; 50 g a.i. ha^−1, 14 DAT): 6.2b % | Plant Injury ([2]; 50 g a.i. ha^−1, 21 DAT): 5.0a % | Plant Injury ([2]; 50 g a.i. ha^−1, 28 DAT): 1.2a % | Dry Weight ([2]; 50 g a.i. ha^−1, 42 DAT): 1.6a grams | Plant Injury ([2]; 100 g a.i. ha^−1, 7 DAT): 7.9b % | Plant Injury ([2]; 100 g a.i. ha^−1, 14 DAT): 22.5b % | Plant Injury ([2]; 100 g a.i. ha^−1, 21 DAT): 13.8a % | Plant Injury ([2]; 100 g a.i. ha^−1, 28 DAT): 6.2a % | Dry Weight ([2]; 100 g a.i. ha^−1, 42 DAT): 1.3b grams | Plant Injury ([2]; 200 g a.i. ha^−1, 7 DAT): 20.8b % | Plant Injury ([2]; 200 g a.i. ha^−1, 14 DAT): 55.0b % | Plant Injury ([2]; 200 g a.i. ha^−1, 21 DAT): 52.5b % | Plant Injury ([2]; 200 g a.i. ha^−1, 28 DAT): 43.8b % | Dry Weight ([2]; 200 g a.i. ha^−1, 42 DAT): 0.8b grams | Plant Injury ([2]; 400 g a.i. ha^−1, 7 DAT): 30.8b % | Plant Injury ([2]; 400 g a.i. ha^−1, 14 DAT): 67.5b % | Plant Injury ([2]; 400 g a.i. ha^−1, 21 DAT): 67.5b % | Plant Injury ([2]; 400 g a.i. ha^−1, 28 DAT): 72.5b % | Dry Weight ([2]; 400 g a.i. ha^−1, 42 DAT): 0.2b grams | Plant Injury ([2]; 800 g a.i. ha^−1, 7 DAT): 35.0b % | Plant Injury ([2]; 800 g a.i. ha^−1, 14 DAT): 85.0b % | Plant Injury ([2]; 800 g a.i. ha^−1, 21 DAT): 85.0b % | Plant Injury ([2]; 800 g a.i. ha^−1, 28 DAT): 88.8b % | Dry Weight ([2]; 800 g a.i. ha^−1, 42 DAT): 0.3b grams | Plant Injury ([2]; 1600 g a.i. ha^−1, 7 DAT): 40.8b % | Plant Injury ([2]; 1600 g a.i. ha^−1, 14 DAT): 90.0b % | Plant Injury ([2]; 1600 g a.i. ha^−1, 21 DAT): 92.5b % | Plant Injury ([2]; 1600 g a.i. ha^−1, 28 DAT): 92.5b % | Dry Weight ([2]; 1600 g a.i. ha^−1, 42 DAT): 0.2b grams | Plant Injury ([2]; 3200 g a.i. ha^−1, 7 DAT): 37.9b % | Plant Injury ([2]; 3200 g a.i. ha^−1, 14 DAT): 100.0b % | Plant Injury ([2]; 3200 g a.i. ha^−1, 21 DAT): 100.0b % | Plant Injury ([2]; 3200 g a.i. ha^−1, 28 DAT): 100.0b % | Dry Weight ([2]; 3200 g a.i. ha^−1, 42 DAT): 0.1b grams | injury score [2, 4]: ≥ 80% | injury score [2, 5]: ≥ 30 | LD50 [3]: > 3200 g ai ha^1 | Plant Injury ([3]; 50 g a.i. ha^−1, 7 DAT): 2.9a % | Plant Injury ([3]; 50 g a.i. ha^−1, 14 DAT): 0.0b % | Plant Injury ([3]; 50 g a.i. ha^−1, 21 DAT): 1.2a % | Plant Injury ([3]; 50 g a.i. ha^−1, 28 DAT): 0.0a % | Dry Weight ([3]; 50 g a.i. ha^−1, 42 DAT): 1.7a grams | Plant Injury ([3]; 100 g a.i. ha^−1, 7 DAT): 0.8a % | Plant Injury ([3]; 100 g a.i. ha^−1, 14 DAT): 1.2a % | Plant Injury ([3]; 100 g a.i. ha^−1, 21 DAT): 3.8a % | Plant Injury ([3]; 100 g a.i. ha^−1, 28 DAT): 2.5a % | Dry Weight ([3]; 100 g a.i. ha^−1, 42 DAT): 2.0a grams | Plant Injury ([3]; 200 g a.i. ha^−1, 7 DAT): 1.7a % | Plant Injury ([3]; 200 g a.i. ha^−1, 14 DAT): 0.0a % | Plant Injury ([3]; 200 g a.i. ha^−1, 21 DAT): 0.0a % | Plant Injury ([3]; 200 g a.i. ha^−1, 28 DAT): 0.0a % | Dry Weight ([3]; 200 g a.i. ha^−1, 42 DAT): 1.9a grams | Plant Injury ([3]; 400 g a.i. ha^−1, 7 DAT): 3.8a % | Plant Injury ([3]; 400 g a.i. ha^−1, 14 DAT): 0.0a % | Plant Injury ([3]; 400 g a.i. ha^−1, 21 DAT): 2.5a % | Plant Injury ([3]; 400 g a.i. ha^−1, 28 DAT): 0.0a % | Dry Weight ([3]; 400 g a.i. ha^−1, 42 DAT): 2.0a grams | Plant Injury ([3]; 800 g a.i. ha^−1, 7 DAT): 1.2a % | Plant Injury ([3]; 800 g a.i. ha^−1, 14 DAT): 1.2a % | Plant Injury ([3]; 800 g a.i. ha^−1, 21 DAT): 3.8a % | Plant Injury ([3]; 800 g a.i. ha^−1, 28 DAT): 1.2a % | Dry Weight ([3]; 800 g a.i. ha^−1, 42 DAT): 2.0a grams | Plant Injury ([3]; 1600 g a.i. ha^−1, 7 DAT): 4.3a % | Plant Injury ([3]; 1600 g a.i. ha^−1, 14 DAT): 0.0a % | Plant Injury ([3]; 1600 g a.i. ha^−1, 21 DAT): 3.8a % | Plant Injury ([3]; 1600 g a.i. ha^−1, 28 DAT): 1.2a % | Dry Weight ([3]; 1600 g a.i. ha^−1, 42 DAT): 1.5a grams | Plant Injury ([3]; 3200 g a.i. ha^−1, 7 DAT): 8.3a % | Plant Injury ([3]; 3200 g a.i. ha^−1, 14 DAT): 7.5a % | Plant Injury ([3]; 3200 g a.i. ha^−1, 21 DAT): 5.5a % | Plant Injury ([3]; 3200 g a.i. ha^−1, 28 DAT): 4.2b % | Dry Weight ([3]; 3200 g a.i. ha^−1, 42 DAT): 1.6a grams | maximum injury score observed ([3]; at 3200 g ai ha^−1): 7.5%
